# Measured values taken from patent US10208030B2, “GPR119 agonist compounds” (Mankind Pharma Ltd., priority 2016, dated 2019).
# Structures can show the parent of a compound that is named as a salt.
# Biological target: T1, hGPR119 (Homo sapiens, UniProt Q8TDV5)
# T1 construct: expressed in transfected cells; host or cells: CHO cells (CHO-hGPR119)
# T1 sequence (Q8TDV5 1-335): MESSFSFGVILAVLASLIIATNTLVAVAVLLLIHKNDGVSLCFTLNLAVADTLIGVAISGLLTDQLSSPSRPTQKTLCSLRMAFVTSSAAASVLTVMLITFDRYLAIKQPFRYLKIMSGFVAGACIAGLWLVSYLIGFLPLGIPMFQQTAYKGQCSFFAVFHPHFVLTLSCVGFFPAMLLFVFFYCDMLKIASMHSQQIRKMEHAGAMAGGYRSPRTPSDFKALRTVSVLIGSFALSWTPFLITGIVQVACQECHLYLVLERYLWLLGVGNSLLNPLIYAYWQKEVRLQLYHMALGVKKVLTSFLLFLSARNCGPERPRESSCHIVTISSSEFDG
# Assay: In vitro cyclic AMP assay (Cisbio HTRF) in CHO-hGPR119 cells
# Format: cell-based
# Settings: 1 h, cAMP, 1 μM, 60 min, read-out: Induction (% induction at 1 μM)
# In short: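 Cells plated at 5000/well and exposed to test compound dose series for 60 min at room temperature with 1 mM IBMX and 0.5% DMSO (final). Lysis with anti-cAMP antibody/d2-cAMP detection reagents, 1 h at room temperature; HTRF read at 665/620 nm (337 nm excitation); EC50 from concentration-response.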
row,Structure (SMILES),activation at 1 µM [%]
1,"CCCc1cnc(N2CCC([C@H](C)Oc3nn4cc(-c5ccc(S(C)(=O)=O)cc5F)nc4s3)CC2)nc1 [Compound 1085, 2-((S)-1-(1-(5-propylpyrimidin-2-yl)piperidin-4-yl)ethoxy)-6-(2-fluoro-4-(methylsulfonyl)phenyl)imidazo[2,1-b][1,3,4]thiadiazole]",74
2,"CC(C)c1noc(N2CCC(C(C)Oc3nn4cc(-c5ccncc5C(F)(F)F)nc4s3)CC2)n1 (stereo not drawn) [Compound 1092, 2-(1-(1-(3-isopropyl-1,2,4-oxadiazol-5-yl)piperidin-4-yl)ethoxy)-6-(3-(trifluoromethyl)pyridin-4-yl)imidazo[2,1-b][1,3,4]thiadiazole]",25
3,"CCc1cnc(N2CCC([C@H](C)Oc3nn4cc(-c5ccnc(OC)c5)nc4s3)CC2)nc1 [Compound 1093, 2-((S)-1-(1-(5-ethylpyrimidin-2-yl)piperidin-4-yl)ethoxy)-6-(2-methoxypyridin-4-yl)imidazo[2,1-b][1,3,4]thiadiazole]",75
4,"CCCc1cnc(N2CCC([C@H](C)Oc3nn4cc(-c5ccnc(OC)c5)nc4s3)CC2)nc1 [Compound 1094, 2-((S)-1-(1-(5-propylpyrimidin-2-yl)piperidin-4-yl)ethoxy)-6-(2-methoxypyridin-4-yl)imidazo[2,1-b][1,3,4]thiadiazole]",68
5,"COc1cnccc1-c1cn2nc(OC(C)C3CCN(c4nc(C(C)C)no4)CC3)sc2n1 (stereo not drawn) [Compound 1095, 2-(1-(1-(3-isopropyl-1,2,4-oxadiazol-5-yl)piperidin-4-yl)ethoxy)-6-(3-methoxypyridin-4-yl)imidazo[2,1-b][1,3,4]thiadiazole]",8
6,"C[C@H](Oc1nn2cc(-c3ccc(S(C)(=O)=O)cc3F)nc2s1)C1CCN(c2ncc(C(F)(F)F)cn2)CC1 [Compound 1098, 2-((S)-1-(1-(5-(trifluoromethyl)pyrimidin-2-yl)piperidin-4-yl)ethoxy)-6-(2-fluoro-4-(methylsulfonyl)phenyl)imidazo[2,1-b][1,3,4]thiadiazole]",68
7,"COc1cc(S(C)(=O)=O)ccc1-c1cn2nc(O[C@@H](C)C3CCN(c4nc(C(C)C)no4)CC3)sc2n1 [Compound 1103, 2-((S)-1-(1-(3-isopropyl-1,2,4-oxadiazol-5-yl)piperidin-4-yl)ethoxy)-6-(2-methoxy-4-(methylsulfonyl)phenyl)imidazo[2,1-b][1,3,4]thiadiazole]",9
8,"Cc1nc(S(C)(=O)=O)ccc1-c1cn2nc(O[C@@H](C)C3CCN(c4nc(C(C)C)no4)CC3)sc2n1 [Compound 1104, 2-((S)-1-(1-(3-isopropyl-1,2,4-oxadiazol-5-yl)piperidin-4-yl)ethoxy)-6-(2-methyl-6-(methylsulfonyl)pyridin-3-yl)imidazo[2,1-b][1,3,4]thiadiazole]",46
9,"CC(C)c1noc(N2CCC([C@@H](C)Oc3nn4cc(-c5ccc(-c6nnn[nH]6)cc5F)nc4s3)CC2)n1 [Compound 1105, 2-((R)-1-(1-(3-isopropyl-1,2,4-oxadiazol-5-yl)piperidin-4-yl)ethoxy)-6-(2-fluoro-4-(1H-tetrazol-5-yl)phenyl)imidazo[2,1-b][1,3,4]thiadiazole hydrochloride]",30
10,"CCOC(=O)N1CCC(C(C)Oc2nn3cc(-c4ccc(S(C)(=O)=O)cc4F)nc3s2)CC1 (stereo not drawn) [Compound 1107, Ethyl 4-(1-(6-(2-fluoro-4-(methylsulfonyl)phenyl)imidazo[2,1-b][1,3,4]thiadiazol-2-yloxy)ethyl)piperidine-1-carboxylate]",67
11,"CC(Oc1nn2cc(-c3ccc(S(C)(=O)=O)cc3F)nc2s1)C1CCN(C(=O)OC2(C)CC2)CC1 (stereo not drawn) [Compound 1110, 1-methylcyclopropyl 4-(1-(6-(2-fluoro-4-(methylsulfonyl)phenyl)imidazo[2,1-b][1,3,4]thiadiazol-2-yloxy)ethyl)piperidine-1-carboxylate]",71
12,"CC(C)c1noc(N2CCC(C(C)Oc3nn4cc(-c5cncs5)nc4s3)CC2)n1 (stereo not drawn) [Compound 1111, 2-(1-(1-(3-isopropyl-1,2,4-oxadiazol-5-yl)piperidin-4-yl)ethoxy)-6-(thiazol-5-yl)imidazo[2,1-b][1,3,4]thiadiazole]",63
13,"Cc1cc(S(C)(=O)=O)ccc1-c1cn2nc(O[C@@H](C)C3CCN(c4nc(C(C)C)no4)CC3)sc2n1 [Compound 1112, 2-((S)-1-(1-(3-isopropyl-1,2,4-oxadiazol-5-yl)piperidin-4-yl)ethoxy)-6-(2-methyl-4-(methylsulfonyl)phenyl)imidazo[2,1-b][1,3,4]thiadiazole]",71
14,"CCOC(=O)N1CCC([C@H](C)Oc2nn3cc(-c4ccc(S(C)(=O)=O)cc4F)nc3s2)CC1 [Compound 1113, ethyl 4-((S)-1-(6-(2-fluoro-4-(methylsulfonyl)phenyl)imidazo[2,1-b][1,3,4]thiadiazol-2-yloxy)ethyl)piperidine-1-carboxylate]",68
15,"CC(C)c1noc(C2CCN(c3nc(-c4ccc(S(C)(=O)=O)cc4)ns3)CC2)n1 [Compound 1114, 4-(3-isopropyl-1,2,4-oxadiazol-5-yl)-1-(3-(4-(methylsulfonyl)phenyl)-1,2,4-thiadiazol-5-yl)piperidine]",4
16,"CC(C)c1noc(N2CCC(C(C)Oc3nc(-c4ccc(S(C)(=O)=O)cc4)ns3)CC2)n1 (stereo not drawn) [Compound 1115, 4-(1-(3-(4-(methylsulfonyl)phenyl)-1,2,4-thiadiazol-5-yloxy)ethyl)-1-(3-isopropyl-1,2,4-oxadiazol-5-yl)piperidine]",14
17,"CC(C)c1noc(N2CCC(Oc3nc(-c4ccc(S(C)(=O)=O)cc4)ns3)CC2)n1 [Compound 1116, 4-(3-(4-(methylsulfonyl)phenyl)-1,2,4-thiadiazol-5-yloxy)-1-(3-isopropyl-1,2,4-oxadiazol-5-yl)piperidine]",36
18,"CC(C)c1noc(N2CCC(COc3nc(-c4ccc(S(C)(=O)=O)cc4)ns3)CC2)n1 [Compound 1117, 4-((3-(4-(methylsulfonyl)phenyl)-1,2,4-thiadiazol-5-yloxy)methyl)-1-(3-isopropyl-1,2,4-oxadiazol-5-yl)piperidine]",2
19,"CC(C)c1noc(N2CCC(Oc3nsc(-c4ccc(S(C)(=O)=O)nc4)n3)CC2)n1 [Compound 1119, 5-(3-(1-(3-isopropyl-1,2,4-oxadiazol-5-yl)piperidin-4-yloxy)-1,2,4-thiadiazol-5-yl)-2-(methylsulfonyl)pyridine]",7
20,"CC(C)c1noc(N2CCC(COc3nsc(-c4ccc(S(C)(=O)=O)nc4)n3)CC2)n1 [Compound 1120, 5-(3-((1-(3-isopropyl-1,2,4-oxadiazol-5-yl)piperidin-4-yl)methoxy)-1,2,4-thiadiazol-5-yl)-2-(methylsulfonyl)pyridine]",15
21,"CCCc1cnc(N2CCC(Oc3nc(-c4ccc(S(C)(=O)=O)nc4)ns3)CC2)nc1 [Compound 1123, 2-(4-(3-(6-(methylsulfonyl)pyridin-3-yl)-1,2,4-thiadiazol-5-yloxy)piperidin-1-yl)-5-propylpyrimidine]",18
22,"CC(C)c1noc(N2CCC(Oc3nc(N(C)c4ccc(S(C)(=O)=O)nc4)ns3)CC2)n1 [Compound 1124, N-(5-(1-(3-isopropyl-1,2,4-oxadiazol-5-yl)piperidin-4-yloxy)-1,2,4-thiadiazol-3-yl)-N-methyl-6-(methylsulfonyl)pyridin-3-amine]",6

# Same assay, conditions: cAMP, class symbols, legend not given
row,Structure (SMILES),EC50
1,"CCCc1cnc(N2CCC([C@H](C)Oc3nn4cc(-c5ccc(S(C)(=O)=O)cc5F)nc4s3)CC2)nc1 [Compound 1085, 2-((S)-1-(1-(5-propylpyrimidin-2-yl)piperidin-4-yl)ethoxy)-6-(2-fluoro-4-(methylsulfonyl)phenyl)imidazo[2,1-b][1,3,4]thiadiazole]",A++
2,"CCOC(=O)N1CCC([C@H](C)Oc2nn3cc(-c4ccc(S(C)(=O)=O)cc4F)nc3s2)CC1 [Compound 1113, ethyl 4-((S)-1-(6-(2-fluoro-4-(methylsulfonyl)phenyl)imidazo[2,1-b][1,3,4]thiadiazol-2-yloxy)ethyl)piperidine-1-carboxylate]",A+
